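Test compounds were applied to cells in 96-well plates for 48 hours at 5 doses. GI50 is the concentration that inhibits growth by half. TGI marks complete inhibition of growth.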
Key:
Assay in all cases: DTP human tumour cell line panel, 48 h
NCI/ADR-RES ovarian = system: NCI/ADR-RES ovarian
DU-145 prostate = system: DU-145 prostate
ACHN renal = system: ACHN renal
OVCAR-8 ovarian = system: OVCAR-8 ovarian
UO-31 renal = system: UO-31 renal
MDA-MB-231 breast = system: MDA-MB-231 breast
OVCAR-3 ovarian = system: OVCAR-3 ovarian
MOLT-4 leukemia = system: MOLT-4 leukemia
SK-MEL-5 melanoma = system: SK-MEL-5 melanoma
SF-268 CNS = system: SF-268 CNS

Row | Compound | TGI (NCI/ADR-RES ovarian) [µM] | TGI (DU-145 prostate) [µM] | TGI (ACHN renal) [µM] | TGI (OVCAR-8 ovarian) [µM] | TGI (UO-31 renal) [µM] | TGI (MDA-MB-231 breast) [µM] | TGI (OVCAR-3 ovarian) [µM] | TGI (MOLT-4 leukemia) [µM] | TGI (SK-MEL-5 melanoma) [µM] | TGI (SF-268 CNS) [µM] | GI50 (MDA-MB-231 breast) [µM] | GI50 (NCI/ADR-RES ovarian) [µM] | GI50 (DU-145 prostate) [µM] | GI50 (ACHN renal) [µM] | GI50 (OVCAR-8 ovarian) [µM] | GI50 (UO-31 renal) [µM] | GI50 (OVCAR-3 ovarian) [µM] | GI50 (MOLT-4 leukemia) [µM] | GI50 (SK-MEL-5 melanoma) [µM] | GI50 (SF-268 CNS) [µM]
1 | CC(C)Oc1c(O)c2c3c(oc(=O)n3C=CC2c2ccccc2F)c1OC(C)C (stereo unspecified) | > 100 | > 100 | > 100 | > 100 | > 100 | > 100 | > 100 | 59.3 | 34.2 | > 100 | – | – | – | – | – | – | – | – | – | –
2 | CC(=O)CC(=O)Nn1c(-c2cccs2)nc2ccc(I)cc2c1=O | > 94.4 | > 96.6 | > 100 | > 100 | > 91.3 | 63.7 | > 78.5 | > 100 | > 65.5 | > 100 | 16.4 | – | – | – | – | – | – | – | – | –
3 | O=C1c2c(ccc3c2CCCC3)CC12Cc1ccccc1C2 | > 100 | > 100 | 97.1 | > 100 | 68.5 | 52.7 | 48.9 | > 35.4 | 22.3 | > 100 | – | – | – | – | – | – | – | – | – | –
4 | COC(=O)C1(C(=O)OC)CC2=C(S(=O)(=O)c3ccccc3)C[C@@H](C#N)[C@H]2C1 | > 100 | > 100 | > 100 | > 100 | > 100 | > 100 | 75.6 | > 100 | > 100 | > 100 | – | – | – | – | – | – | – | – | – | –
5 | C=C(Cl)C(Cl)(CBr)CCC(Cl)C(C)C (stereo unspecified) | 29.3 | 3.77 | 9.52 | > 100 | 7.4 | 9.99 | 3.45 | > 62.9 | 42.8 | 11.5 | – | – | – | – | – | – | – | – | – | –
6 | COc1ccc(N=Nc2ccc3oc(=O)c(C(=O)Nc4ccc(OC)cc4)cc3c2)cc1 | 51.7 | 53.9 | 56.5 | 37.8 | 62.4 | 88.1 | 46.6 | 34.9 | 33.3 | 48.8 | – | – | – | – | – | – | – | – | – | –
7 | COc1cc(OC)cc(N(C)Cc2cnc3nc(N)nc(N)c3c2C)c1 | > 100 | > 100 | > 100 | > 100 | > 100 | > 100 | > 31.6 | > 100 | > 100 | > 100 | – | – | – | – | – | – | – | – | – | –
8 | O=C(C(=O)n1ccc2ccccc21)c1c[nH]c2ccccc12 | > 10 | > 10 | > 10 | > 10 | > 10 | > 10 | > 10 | > 10 | > 10 | > 10 | – | – | – | – | – | – | – | – | – | –
9 | CCOc1c(OC)cc(CNNc2nccs2)cc1OC | > 100 | > 100 | > 100 | > 100 | > 100 | > 100 | > 100 | > 100 | 92.7 | > 100 | – | – | – | – | – | – | – | – | – | –
10 | CCOC(=O)C1C(=O)C=C(c2cc(C)ccc2O)CC1c1cccc(Br)c1 (stereo unspecified) | 46.1 | > 100 | 42.2 | 92.7 | 56.6 | 48.4 | 84.8 | 43.7 | 28.5 | 77.9 | – | – | – | – | – | – | – | – | – | –
11 | O=C(O)CCCCCNC(=O)CCC(CN(CC(=O)OCc1ccccc1)CC(=O)OCc1ccccc1)N(CC(=O)OCc1ccccc1)CC(=O)OCc1ccccc1 (stereo unspecified) | 43.1 | 33.7 | 32 | 30.1 | 29.3 | 38.6 | 33.9 | 37.2 | 32.2 | 43.3 | – | – | – | – | – | – | – | – | – | –
12 | Nc1cc(N)c2nc(-c3ccccc3)c(Sc3ccc(F)cc3)nc2c1 | 34.7 | 37.7 | 27.7 | 34.9 | > 100 | 38 | 33.6 | > 100 | 33.4 | 38.9 | 17.5 | 16.6 | 19.8 | 14.2 | 16.7 | 32 | 16.3 | > 100 | 15.6 | 17.6
13 | COc1cc(NS(C)(=O)=O)ccc1N1Cc2cnc3ccc4[nH]ccc1c4c23 | > 100 | > 100 | > 100 | > 100 | > 100 | 92.4 | > 100 | 62.5 | 75.8 | 75.2 | – | – | – | – | – | – | – | – | – | –
14 | CC(C)(C)C(=O)C(C#N)C(=O)C(C)(C)C | > 100 | > 100 | > 100 | > 100 | > 100 | > 100 | > 100 | > 100 | > 100 | > 100 | – | – | – | – | – | – | – | – | – | –
15 | COc1cccc(C(=O)C(O)c2cccc(OC)c2OC)c1OC (stereo unspecified) | > 100 | > 100 | > 100 | > 100 | > 100 | > 100 | > 100 | > 100 | > 100 | > 100 | – | – | – | – | – | – | – | – | – | –
16 | C[N+]12C=CC=C1C(N1CCCC1)c1sc(-c3ccc(Cl)cc3)cc12 (stereo unspecified) | > 100 | 32.6 | > 100 | 33.5 | > 100 | 35.5 | 26.5 | 53.5 | 31.8 | 34.3 | – | – | – | – | – | – | – | – | – | –
17 | COc1cc2c(cc1C)NC(=O)/C2=C/c1c(Cl)n(C)c2ccccc12 | 24.6 | 23.6 | 25.7 | 35.8 | 22.9 | 65.1 | 15.3 | 72.7 | 22 | 16.2 | – | – | – | – | – | – | – | – | – | –
18 | CCN1CCc2sc3[nH]c(=S)n(C)c(=O)c3c2C1 | > 100 | > 100 | > 100 | > 100 | > 100 | > 100 | > 100 | > 100 | > 100 | > 100 | – | – | – | – | – | – | – | – | – | –
19 | COC(=O)C(I(OS(=O)(=O)c1ccc(C)cc1)c1ccccc1)=P(c1ccccc1)(c1ccccc1)c1ccccc1 | > 100 | 32.4 | 32.6 | 48.1 | 54.8 | 75.6 | 33.4 | 84.4 | 26.1 | 33.4 | – | – | – | – | – | – | – | – | – | –
20 | c1ccc(C2(c3cc4ccccc4[nH]3)OCCO2)cc1 | > 100 | > 100 | > 100 | > 100 | > 100 | > 100 | > 100 | 49.4 | 57 | > 100 | – | – | – | – | – | – | – | – | – | –
21 | CCC1(CC)C(=O)N(C(=O)c2ccc(Cl)cc2)N(C(=O)c2ccccc2Cl)C1=O | > 100 | > 100 | > 100 | > 100 | > 100 | > 100 | > 100 | 52.2 | > 100 | > 100 | – | – | – | – | – | – | – | – | – | –
22 | Cc1c2cccc-2c(N(C)C)cc2c1[nH]c1ccccc12 | 13.4 | 28.7 | 12.4 | 10.3 | 7.93 | 23.8 | > 100 | 16.9 | 18.5 | 16.7 | – | – | – | – | – | – | – | – | – | –
23 | Cc1ccc(-c2cn3c(nc4ccccc43)c(C)n2)cc1 | > 100 | > 100 | > 100 | > 100 | > 30.1 | > 100 | > 100 | > 100 | 40.3 | > 100 | – | – | – | – | – | – | – | – | – | –
24 | O=C1NC(N2CCCC(CO)C2)=N/C1=C\c1ccc(O)cc1 (stereo unspecified) | > 100 | > 100 | > 100 | > 100 | > 100 | > 100 | > 100 | > 100 | > 100 | > 100 | – | – | – | – | – | – | – | – | – | –
25 | COc1ccc(/C=N/NC(=O)c2ccccc2Nc2ccccc2C(=O)N/N=C/c2ccc(OC)c(OC)c2)cc1OC | > 100 | > 100 | > 100 | > 100 | > 100 | 89.1 | > 100 | > 100 | > 100 | > 100 | – | – | – | – | – | – | – | – | – | –
26 | CC(C)NC(=O)OCc1c(COC(=O)NC(C)C)c(-c2ccc[n+](COC(=O)C3CCCCC3)c2)n2c1CCC2 | > 100 | > 100 | > 100 | > 100 | > 100 | > 100 | > 100 | > 100 | > 100 | > 100 | – | – | – | – | – | – | – | – | – | –
